Targets include AURKC (human) (UniProt Q9UQB9); MYLK (human) (UniProt Q15746); NEK7 (human) (UniProt Q8TDX7); CAMKK1 (human) (UniProt Q8N5S9).
Assay in all cases: radiometric filter-binding kinase assay

Sequence of AURKC (human) (Q9UQB9 whole entry, looked up): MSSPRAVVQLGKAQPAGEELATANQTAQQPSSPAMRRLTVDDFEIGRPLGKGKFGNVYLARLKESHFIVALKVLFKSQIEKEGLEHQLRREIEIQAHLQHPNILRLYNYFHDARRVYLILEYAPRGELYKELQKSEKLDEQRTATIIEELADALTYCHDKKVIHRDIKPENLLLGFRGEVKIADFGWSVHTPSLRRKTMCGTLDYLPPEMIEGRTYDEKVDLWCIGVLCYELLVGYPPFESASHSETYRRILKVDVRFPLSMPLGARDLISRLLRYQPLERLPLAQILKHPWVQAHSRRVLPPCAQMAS
Sequence of CAMKK1 (human) (Q8N5S9 whole entry, looked up): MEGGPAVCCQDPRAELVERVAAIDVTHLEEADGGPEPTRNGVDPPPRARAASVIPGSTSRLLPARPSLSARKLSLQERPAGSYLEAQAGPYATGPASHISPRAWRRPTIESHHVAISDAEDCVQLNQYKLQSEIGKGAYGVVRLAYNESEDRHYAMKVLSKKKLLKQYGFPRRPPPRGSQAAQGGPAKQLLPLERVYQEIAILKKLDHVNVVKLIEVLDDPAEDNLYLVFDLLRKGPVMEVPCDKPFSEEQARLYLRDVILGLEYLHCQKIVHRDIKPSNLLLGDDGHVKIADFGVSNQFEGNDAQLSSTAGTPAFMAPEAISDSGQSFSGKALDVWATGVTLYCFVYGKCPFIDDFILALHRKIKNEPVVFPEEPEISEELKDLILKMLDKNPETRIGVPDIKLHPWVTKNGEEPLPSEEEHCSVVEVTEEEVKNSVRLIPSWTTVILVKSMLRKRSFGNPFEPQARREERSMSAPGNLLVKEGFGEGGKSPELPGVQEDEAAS
Sequence of MYLK (human) (Q15746 whole entry, looked up): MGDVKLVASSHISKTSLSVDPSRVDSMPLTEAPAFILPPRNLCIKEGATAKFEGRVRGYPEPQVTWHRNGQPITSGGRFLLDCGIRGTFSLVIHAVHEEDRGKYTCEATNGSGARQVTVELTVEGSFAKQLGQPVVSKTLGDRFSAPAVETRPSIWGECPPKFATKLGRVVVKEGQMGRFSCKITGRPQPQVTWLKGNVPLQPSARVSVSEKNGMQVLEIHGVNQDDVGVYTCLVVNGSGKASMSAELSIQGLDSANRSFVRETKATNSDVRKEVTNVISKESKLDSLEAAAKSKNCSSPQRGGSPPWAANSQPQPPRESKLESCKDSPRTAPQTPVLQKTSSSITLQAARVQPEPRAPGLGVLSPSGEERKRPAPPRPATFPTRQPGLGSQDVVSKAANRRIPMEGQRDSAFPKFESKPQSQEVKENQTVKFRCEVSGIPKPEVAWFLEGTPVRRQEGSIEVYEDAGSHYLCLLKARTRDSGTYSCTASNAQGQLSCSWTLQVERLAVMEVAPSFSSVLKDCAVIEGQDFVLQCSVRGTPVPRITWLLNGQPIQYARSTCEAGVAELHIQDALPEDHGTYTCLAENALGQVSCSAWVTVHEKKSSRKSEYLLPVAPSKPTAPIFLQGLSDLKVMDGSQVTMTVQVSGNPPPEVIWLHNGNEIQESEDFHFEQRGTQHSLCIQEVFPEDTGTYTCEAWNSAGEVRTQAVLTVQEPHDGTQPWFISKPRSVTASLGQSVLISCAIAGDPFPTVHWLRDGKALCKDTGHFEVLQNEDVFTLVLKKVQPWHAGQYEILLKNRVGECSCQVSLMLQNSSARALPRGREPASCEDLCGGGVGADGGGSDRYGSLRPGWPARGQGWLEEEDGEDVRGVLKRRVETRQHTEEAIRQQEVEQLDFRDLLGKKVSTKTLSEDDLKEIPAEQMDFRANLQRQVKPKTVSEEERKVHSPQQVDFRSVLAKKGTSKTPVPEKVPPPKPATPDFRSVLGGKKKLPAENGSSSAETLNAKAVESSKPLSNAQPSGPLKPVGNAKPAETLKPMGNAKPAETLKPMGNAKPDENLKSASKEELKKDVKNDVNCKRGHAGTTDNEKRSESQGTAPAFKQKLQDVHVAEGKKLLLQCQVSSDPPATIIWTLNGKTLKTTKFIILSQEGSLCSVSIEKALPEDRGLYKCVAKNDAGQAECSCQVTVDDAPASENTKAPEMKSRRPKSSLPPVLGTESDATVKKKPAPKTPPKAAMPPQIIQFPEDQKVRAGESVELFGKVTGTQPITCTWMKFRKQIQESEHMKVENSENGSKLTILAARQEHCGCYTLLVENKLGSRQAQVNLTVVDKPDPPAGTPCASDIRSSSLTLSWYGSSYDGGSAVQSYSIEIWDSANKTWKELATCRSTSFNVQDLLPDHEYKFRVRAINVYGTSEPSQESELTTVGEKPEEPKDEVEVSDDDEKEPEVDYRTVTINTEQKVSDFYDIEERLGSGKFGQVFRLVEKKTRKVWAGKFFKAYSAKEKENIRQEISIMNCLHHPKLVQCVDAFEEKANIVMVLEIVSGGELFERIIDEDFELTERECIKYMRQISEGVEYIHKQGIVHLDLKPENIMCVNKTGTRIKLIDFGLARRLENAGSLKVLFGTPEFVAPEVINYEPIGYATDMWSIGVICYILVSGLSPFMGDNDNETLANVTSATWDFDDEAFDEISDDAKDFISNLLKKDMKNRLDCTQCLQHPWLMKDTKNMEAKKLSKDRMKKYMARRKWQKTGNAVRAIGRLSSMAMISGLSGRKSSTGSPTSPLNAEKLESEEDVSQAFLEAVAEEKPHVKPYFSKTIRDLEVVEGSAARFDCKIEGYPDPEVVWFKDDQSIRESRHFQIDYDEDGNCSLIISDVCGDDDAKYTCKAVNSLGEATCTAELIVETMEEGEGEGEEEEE
Sequence of NEK7 (human) (Q8TDX7 whole entry, looked up): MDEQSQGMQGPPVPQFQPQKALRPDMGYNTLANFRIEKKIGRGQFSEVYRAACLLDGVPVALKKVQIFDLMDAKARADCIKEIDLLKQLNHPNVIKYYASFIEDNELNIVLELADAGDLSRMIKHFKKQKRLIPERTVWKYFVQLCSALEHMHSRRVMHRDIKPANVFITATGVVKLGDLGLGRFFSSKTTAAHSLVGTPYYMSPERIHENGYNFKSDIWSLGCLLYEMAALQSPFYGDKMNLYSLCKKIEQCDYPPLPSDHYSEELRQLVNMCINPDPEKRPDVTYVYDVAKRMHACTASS

Consider `Cc1cccc(Nc2nn(C)c3ncnc(N)c23)c1`, for which the residual activity was 92% at AURKC (human) (compound 1.0 µM); 117% on AURKC (human) (compound 10.0 µM); 93% at MYLK (human) (compound 1.0 µM); 87% at MYLK (human) (compound 10.0 µM); 88% at NEK7 (human) (compound 1.0 µM); 91% at NEK7 (human) (compound 10.0 µM). Moreover, the residual activity on CAMKK1 (human) (compound 1.0 µM) worked out at 111%; at CAMKK1 (human) (compound 10.0 µM), 114%.

Turning to `Oc1ccc(/C=C/c2cc(O)cc(O)c2)cc1`, the residual activity came out at 75% on AURKC (human) (compound 1.0 µM); 32% at AURKC (human) (compound 50.0 µM); 78% at MYLK (human) (compound 1.0 µM); 63% on MYLK (human) (compound 10.0 µM); 15% at MYLK (human) (compound 50.0 µM); 94% on NEK7 (human) (compound 1.0 µM). Moreover, the residual activity came to 95% at NEK7 (human) (compound 50.0 µM), 98% at CAMKK1 (human) (compound 1.0 µM) and 30% at CAMKK1 (human) (compound 50.0 µM).

Take `COc1ccc2c(c1)c1c3c(c4c5ccccc5n(C)c4c1n2CC(O)CN(C)C)C(=O)NC3=O` (configuration not stated): the residual activity on AURKC (human) (compound 0.1 µM) turned out to be 48%; on AURKC (human) (compound 1.0 µM), 13%; at AURKC (human) (compound 10.0 µM), 7%; on MYLK (human) (compound 0.1 µM), 15%; on MYLK (human) (compound 1.0 µM), 6%; on MYLK (human) (compound 10.0 µM), 3%. The residual activity at NEK7 (human) (compound 0.1 µM) was determined as 94%; at NEK7 (human) (compound 1.0 µM) it was 84%; at NEK7 (human) (compound 10.0 µM), 82%; at CAMKK1 (human) (compound 0.1 µM) it was 109%; on CAMKK1 (human) (compound 1.0 µM) it was 97%; at CAMKK1 (human) (compound 10.0 µM) it was 101%.

As for `Cn1nc(Nc2ccc(F)cc2)c2c(N)ncnc21`, the residual activity worked out at 125% on AURKC (human) (compound 1.0 µM); 117% at AURKC (human) (compound 10.0 µM); 94% at MYLK (human) (compound 1.0 µM); 107% on MYLK (human) (compound 10.0 µM); 94% on NEK7 (human) (compound 1.0 µM); 99% at NEK7 (human) (compound 10.0 µM). In addition, the residual activity on CAMKK1 (human) (compound 1.0 µM) was 89%; at CAMKK1 (human) (compound 10.0 µM), 112%.

The values are drawn from the kinase profiling compilation of Christmann-Franck et al. (2016).
